From PMC9227119, “Hydroxybenzoic Acids as Acetylcholinesterase Inhibitors: Calorimetric and Docking Simulation Studies” (Nutrients, 2022)
Converted amounts (≈) assume the structure as drawn. “And” between values parts separate entries of the source, which are not always exact repeats. Equal entries are not always repeated. Where two headings read alike, the source gives them in different places.

Legend:
AChE [1] = details: colorimetric method; cited from earlier work
[2] = target: T1, Acetylcholinesterase from Electrophorus electricus (electric eel) (AChE) (Electrophorus electricus, UniProt O42275); assay type: biochemical; details: 36.6 °C; for % Inhibition (inhibitory activity, ITC): AChE 1 μmol/L in cell, syringe hydroxybenzoic acid 0.5 mmol/L and ACh 1 mmol/L, mean ± SD of three; for IC50 (ITC): ligand amount per AChE monomer that inhibits ACh hydrolysis by 50%
[3] = target: T1, Acetylcholinesterase from Electrophorus electricus (electric eel) (AChE); test: ITC: titration of AChE with ligand, complexation (association) constant; assay type: binding; details: for Ka × 10^3 (binding/association constant, ITC): 36.6 °C, one binding site model; for Ka (association constant, ITC): restated in L/mol
AChE [4] = details: inhibitory activity for AChE; cited from earlier work
AChE [5] = system: AChE; parameters: method as in PMID 18274286; details: AChE inhibition; cited from earlier work
AChE [6] = system: AChE; parameters: method as in PMID 23229229; details: AChE inhibition; cited from earlier work
AChE [7] = details: anti-AChE activity; cited from earlier work
AChE [8] = details: mice administered with streptozotocin; dose-dependent; cited from earlier work
AChE [9] = details: AChE inhibition; literature result, no reference given; cited from earlier work

T1 sequence (O42275 24-633): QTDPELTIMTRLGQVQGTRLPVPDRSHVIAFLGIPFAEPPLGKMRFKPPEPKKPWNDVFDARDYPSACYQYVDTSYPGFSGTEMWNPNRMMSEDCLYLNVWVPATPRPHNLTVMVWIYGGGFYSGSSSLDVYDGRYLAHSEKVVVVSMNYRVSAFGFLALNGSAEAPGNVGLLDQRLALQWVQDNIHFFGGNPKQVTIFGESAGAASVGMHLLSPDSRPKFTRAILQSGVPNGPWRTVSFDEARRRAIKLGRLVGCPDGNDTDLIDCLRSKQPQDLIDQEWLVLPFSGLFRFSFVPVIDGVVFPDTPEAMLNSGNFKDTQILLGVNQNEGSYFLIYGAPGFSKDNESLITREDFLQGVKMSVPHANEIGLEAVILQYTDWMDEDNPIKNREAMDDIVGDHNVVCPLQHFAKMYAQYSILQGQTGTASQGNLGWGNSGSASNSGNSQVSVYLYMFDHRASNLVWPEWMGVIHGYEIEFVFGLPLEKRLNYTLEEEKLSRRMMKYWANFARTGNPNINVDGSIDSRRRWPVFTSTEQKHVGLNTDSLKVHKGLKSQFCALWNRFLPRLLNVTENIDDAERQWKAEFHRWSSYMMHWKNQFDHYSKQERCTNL

SMILES	Ellman’s Assay (inhibitory activity as eserine equivalent) (AChE [1])	% Inhibition (inhibitory activity, ITC) [2]	IC50 (ITC) [2]	Kd [3]	Ka × 10^3 (binding/association constant, ITC) [3]	further results
O=C(O)c1cccc(O)c1 [3-hydroxybenzoic acid]	2.6 ± 0.1 nmol/L of Eserine	74.80 ± 8.63%	6.68 μmol/μmol AChE and 6.68 ± 0.77 μmol/μmol AChE	15.6 µM	64.10 × 10^3 L/mol	–
O=C(O)c1ccc(O)cc1 [4-hydroxybenzoic acid]	3.7 ± 0.3 nmol/L of Eserine	–	–	–	–	–
O=C(O)Cc1ccc(O)cc1 [4-hydroxyphenylacetic acid]	–	80.20 ± 8.04%	6.24 μmol/μmol AChE and 6.24 ± 0.63 μmol/μmol AChE	15.1 µM	66.23 × 10^3 L/mol	–
O=C(O)C(=O)Cc1ccc(O)cc1 [4-hydroxyphenylpyruvic acid]	23.6 ± 1.5 nmol/L of Eserine	84.93 ± 5.82%	5.89 μmol/μmol AChE and 5.89 ± 0.40 μmol/μmol AChE	3.95 µM	253 × 10^3 L/mol	Ka (association constant, ITC) [3]: 253000 L/mol
CCOC(=O)c1ccc(O)cc1 [ethyl 4-hydroxybenzoate]	28.1 ± 0.1 nmol/L of Eserine	15.93 ± 0.75%	31.38 ± 1.48 μmol/μmol AChE	48.7 µM	20.53 × 10^3 L/mol	IC50 (ITC) ([2]; listed as ethylhydroxybenzoate): 31.38 μmol/μmol AChE
CCOC(=O)c1ccc(O)c(OC)c1 [ethyl vanillate]	33.5 ± 2.5 nmol/L of Eserine	14.60 ± 2.33%	34.19 μmol/μmol AChE and 34.19 ± 5.46 μmol/μmol AChE	25.8 µM	38.76 × 10^3 L/mol	–
O=C(O)c1cc(O)c(O)c(O)c1 [gallic acid]	3.8 ± 0.1 nmol/L of Eserine	53.70 ± 2.86%	9.32 μmol/μmol AChE and 9.32 ± 0.50 μmol/μmol AChE	19.4 µM	51.55 × 10^3 L/mol	IC50 (AChE [5]): 5.89 µM
O=C(O)c1cc(O)ccc1O [gentisic acid]	68.6 ± 0.7 nmol/L of Eserine	62.38 ± 6.39%	8.02 μmol/μmol AChE and 8.02 ± 0.82 μmol/μmol AChE	13 µM	76.92 × 10^3 L/mol	–
O=C(O)Cc1cc(O)ccc1O [homogentisic acid]	9.6 ± 2.4 nmol/L of Eserine	68.78 ± 0.88%	7.16 μmol/μmol AChE and 7.16 ± 0.09 μmol/μmol AChE	8.55 µM	116.92 × 10^3 L/mol	–
COc1cc(CC(=O)O)ccc1O [homovanillic acid]	21.8 ± 0.4 nmol/L of Eserine	77.50 ± 2.59%	6.45 μmol/μmol AChE and 6.45 ± 0.22 μmol/μmol AChE	7.35 µM	136.05 × 10^3 L/mol	–
COC(=O)c1cc(OC)c(O)c(OC)c1 [methyl syringate]	9.1 ±1.6 nmol/L of Eserine	90.93 ± 7.13%	5.50 μmol/μmol AChE and 5.50 ± 0.43 μmol/μmol AChE	6.48 µM	154.32 × 10^3 L/mol	Ka (association constant, ITC) [3]: 154000 L/mol
C[C@H](Cc1ccc(O)c(O)c1)[C@@H](C)Cc1ccc(O)c(O)c1 [nordihydroguaiaretic acid]	37.3 ± 1.2 nmol/L of Eserine	77.20 ± 4.84%	6.47 μmol/μmol AChE and 6.47 ± 0.41 μmol/μmol AChE	17.3 µM	57.80 × 10^3 L/mol	IC50 (AChE [6]): 46.2 µM
O=C(O)c1ccc(O)c(O)c1 [protocatechuic acid]	–	77.15 ± 5.16%	6.50 ± 0.43 μmol/μmol AChE	17.4 µM	57.63 × 10^3 L/mol	IC50 (ITC) ([2]; listed as Protocatechic acid): 6.50 μmol/μmol AChE
O=C(O)c1ccccc1O [salicylic acid]	11.8 ± 0.4 nmol/L of Eserine	82.30 ± 4.77%	6.07 ± 0.35 μmol/μmol AChE	19.4 µM	51.55 × 10^3 L/mol	IC50 (ITC) ([2]; listed as Salicylic acid): 6.07 μmol/μmol AChE
COc1cc(C(=O)O)cc(OC)c1O [syringic acid]	5.4 ± 0.1 nmol/L of Eserine	71.80 ± 3.12%	6.96 ± 0.30 μmol/μmol AChE	5.46 µM	183.15 × 10^3 L/mol	IC50 (AChE [7]): 18.73 mg/L (≈ 94.5 µM); IC50 (ITC) ([2]; listed as Syringic acid): 6.96 μmol/μmol AChE; Ka (association constant, ITC) [3]: 180000 L/mol
COc1cc(C(=O)O)ccc1O [vanillic acid]	3.2 ± 0.0 nmol/L of Eserine	73.70 ± 1.90%	6.79 μmol/μmol AChE and 6.79 ± 0.18 μmol/μmol AChE	19.1 µM	52.36 × 10^3 L/mol	AChE activity in mice (AChE [8]): reduced
COc1cc(C=O)ccc1O [vanillin]	–	–	–	–	–	IC50 (AChE [9]): 37 µM
